One data set relates to hepatocyte. The data set can be described thus: Hepatocyte viability assay (CEREP). Type of data set: cell-based. The protocol:
See, Tables 4b and Scheme 18. The hepatocyte cell viability assays were performed by CEREP, Seattle, Wash., according to Mosmann, T., 1983, J. Immunol. Met. 65:55-62.

The target in a further data set is T1, TLR8 (Homo sapiens, UniProt Q9NR97).
T1 construct: PBMCs were isolated from unpurified buffy coat from healthy human donors; host or cells: primary human PBMCs
T1 sequence (Q9NR97 27-1041): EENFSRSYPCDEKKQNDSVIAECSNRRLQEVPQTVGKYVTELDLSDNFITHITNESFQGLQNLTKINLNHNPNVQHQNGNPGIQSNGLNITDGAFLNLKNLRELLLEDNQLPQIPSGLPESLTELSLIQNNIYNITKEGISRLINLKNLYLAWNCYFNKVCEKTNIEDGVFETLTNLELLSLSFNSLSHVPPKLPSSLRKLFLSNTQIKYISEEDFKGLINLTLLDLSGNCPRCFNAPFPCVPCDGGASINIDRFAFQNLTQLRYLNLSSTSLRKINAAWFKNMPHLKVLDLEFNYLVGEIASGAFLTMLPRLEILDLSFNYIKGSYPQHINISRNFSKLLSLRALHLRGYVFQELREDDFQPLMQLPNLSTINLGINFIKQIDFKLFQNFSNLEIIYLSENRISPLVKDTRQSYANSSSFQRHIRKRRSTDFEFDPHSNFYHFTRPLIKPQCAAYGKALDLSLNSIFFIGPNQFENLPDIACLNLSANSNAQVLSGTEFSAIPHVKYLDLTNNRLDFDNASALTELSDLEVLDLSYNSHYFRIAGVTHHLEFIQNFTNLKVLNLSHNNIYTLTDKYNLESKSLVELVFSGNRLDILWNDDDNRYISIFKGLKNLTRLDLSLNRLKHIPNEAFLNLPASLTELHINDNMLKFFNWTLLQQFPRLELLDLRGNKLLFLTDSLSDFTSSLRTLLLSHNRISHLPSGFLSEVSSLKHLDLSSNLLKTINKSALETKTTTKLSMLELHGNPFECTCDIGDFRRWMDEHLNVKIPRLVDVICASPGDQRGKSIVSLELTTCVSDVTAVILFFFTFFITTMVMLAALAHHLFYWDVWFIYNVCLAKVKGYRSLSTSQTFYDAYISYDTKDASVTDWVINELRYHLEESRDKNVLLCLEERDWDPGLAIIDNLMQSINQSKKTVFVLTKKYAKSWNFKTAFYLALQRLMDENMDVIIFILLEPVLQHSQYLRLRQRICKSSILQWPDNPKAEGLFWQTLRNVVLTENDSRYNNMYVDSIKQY
The data set can be described thus: TLR8 antagonist assay in human PBMCs (ORN1075, TNFα ELISA). The class given is cell-based. Particulars: human PBMC, 0.5 μM ORN1075, TNFα readout. Here is the method:
PBMCs were isolated from unpurified buffy coat from healthy human donors (Blood Research Components, LLC). For antagonist testing, cells were plated on 96-well U-bottom plates at 3×10^6 cells/ml. Antagonist compounds were added to cells in duplicate wells and titrated from 10 μM in 1:3 serial dilutions (8 antagonist concentrations tested in total). After approximately 30 minutes, cells were stimulated with agonist compound (see table 2 for agonist concentrations). After stimulation, cells were incubated overnight at 37° C. To increase the stability of the ssRNA, 3 μg/ml DOTAP (Roche) was added to ORN1075 agonist solutions. All dilutions were made in RPMI-1640 media (Sigma, cat.# R7388)+5% human male AB sera (Sigma, cat.# H4522)+1× Penicillin/Streptomycin solution (VWR, cat.#82026-730).
TLR activity was measured in PBMCs and neutrophils by ELISA using cytokine readouts specific for the TLR of interest.
TNFα was used as a readout for TLR8 activity in PBMCs and neutrophils stimulated with ORN1075 (See Table 3 for concentrations) using the ELISA Max™ Deluxe Set Human TNFα kit (BioLegend, cat.#430206). Supernatant from PBMCs was diluted 1:50 and from neutrophils at 1:3 in 1× Assay Diluent (BioLegend). ELISAs were run according to the kit product specifications. Absorbance at 450 nm was recorded using a Molecular Devices SpectraMax340PC plate reader. The IC50 for each antagonist was subsequently calculated following the method described below.
Raw ELISA datasets for each 96-well plate, consisting of absorbance readings at […], were first imported in Microsoft Excel to calculate the average absorbance for each standard or antagonist concentration. The averaged data was then imported into SigmaPlot v.11.0 where a standard curve was calculated and used to extrapolate the relative concentration of TLR readout (TNFα, IFNα, etc.) produced. The dose-response curve of each antagonist was then plotted with SigmaPlot v.11.0 on a Log scale. Concentrations of TLR readout were converted to a percentage relative to the average maximum concentration for that ELISA plate in Microsoft Excel. The IC50 for each antagonist was then determined with the SigmaPlot regression wizard using a 4-parameter Hill equation. Each antagonist was tested in a minimum of 3 independent experiments and IC50 results were compiled and averaged using Microsoft Excel.

Consider eleven compounds from patent US20170275287A1, “NOVEL N2, N4, N7, 6-TETRASUBSTITUTED PTERIDINE-2,4,7-TRIAMINE AND 2, 4, 6, 7-TETRASUBSTITUTED PTERIDINE COMPOUNDS AND METHODS OF SYNTHESIS AND USE THEREOF” (Janus Biotherapeutics, Inc., priority 2014, published 2017).

For `CN1CCN(c2nc(NCCN3CCOCC3)c3ncc(-c4ccccc4)nc3n2)CC1` [JB6059], the “% Hepatocyte viability 24 h at 100 μM” value in the data set with hepatocyte was found to be 69%. Besides, on TLR8, half-maximal inhibition (IC50) was put at 273 nM.

As for `CCOc1nc2c(NCCN3CCOCC3)nc(NCc3ccccc3)nc2nc1NCCN1CCOCC1` [JB6180], in the data set with hepatocyte, the “% Hepatocyte viability 24 h at 50 μM” value is 13%. Besides, the IC50 (as a rule, the concentration that inhibits the measured activity by half) at TLR8 worked out at 151 nM.

In the case of `CCOc1nc2c(NCCN3CCCC3)nc(-c3ccccc3)nc2nc1N1CCN(C)CC1` [JB6131], the “% Hepatocyte viability 24 h at 100 μM” value with hepatocyte is on record as 11%. On TLR8, the IC50 was 78 nM.

Take `CN1CCN(c2nc3nc(-c4ccccc4)nc(NCCN4CCOCC4)c3nc2OCCN2CCOCC2)CC1` [JB6116]: the “% Hepatocyte viability 24 h at 100 μM” value in the data set on hepatocyte is on record as 69%. The compound further had an IC50 against TLR8 of 658 nM.

`COCCN1CCN(c2nc(NCCN3CCOCC3)c3nc(Cl)c(NCCN4CCOCC4)nc3n2)CC1` [JB6160]: the “% Hepatocyte viability 24 h at 50 μM” value with hepatocyte came to 47%. Besides, on TLR8, the half-inhibitory concentration (IC50) was 219 nM.

In the case of `Clc1nc2c(NCCN3CCOCC3)nc(NCc3ccccc3)nc2nc1NCCN1CCOCC1` [JB6172], the “% Hepatocyte viability 24 h at 50 μM” value with hepatocyte was 51%. On TLR8, this compound returned an IC50 of 246 nM.

At TLR8, `Clc1nc2c(NCCN3CCOCC3)nc(N3CCOCC3)nc2nc1NCCN1CCOCC1` [JB6147] came in with an IC50 of 7300 nM.

`CN1CCN(c2nc(NCCN3CCOCC3)c3nc(Cl)c(NCCN4CCOCC4)nc3n2)CC1` [JB6121, 6-chloro-2-(4-methylpiperazin-1-yl)-N^4,N^7-bis(2-morpholinoethyl)pteridine-4,7-diamine]: the “% Hepatocyte viability 24 h at 100 μM” value in the data set with hepatocyte turned out to be 92%. On TLR8, 514 nM corresponded to half-maximal inhibition (IC50).

As for `CCCCNc1nc(NCCN2CCOCC2)c2nc(Cl)c(NCCN3CCOCC3)nc2n1` [JB6140], the “% Hepatocyte viability 24 h at 50 μM” value in the data set on hepatocyte was determined as 59%. At TLR8, the 50% inhibitory concentration (IC50) came to 754 nM.

For the compound `C[C@@H]1CN(CCNc2nc3nc(N4CCN(C)CC4)nc(NCCN4C[C@@H](C)O[C@@H](C)C4)c3nc2Cl)C[C@H](C)O1` [JB6143], the “% Hepatocyte viability 24 h at 50 μM” value with hepatocyte is recorded as 74%. In addition, the midpoint of inhibition on TLR8, the IC50, lay at 263 nM.

`CCCCNc1nc(NCCN2CCOCC2)c2nc(SCC)c(NCCN3CCOCC3)nc2n1` [JB6185]: the “% Hepatocyte viability 24 h at 50 μM” value with hepatocyte was 0%. Also, it took 136 nM to reach half-maximal inhibition at TLR8 (IC50).
